In ChEMBL document CHEMBL5113378, “Role of basic aminoalkyl chains in the lead optimization of Indoloquinoline alkaloids” (Eur J Med Chem, 2022):

Tests used:
HCT-116 = assay: Antiproliferative activity against human HCT-116 cells assessed as cell growth inhibition; type: functional, cell-based
[1] = biological target: T1, Telomerase reverse transcriptase (Homo sapiens, UniProt O14746); assay: Inhibition of telomerase derived from human K562 cell extract incubated for 30 mins by TRAP assay; type: cell-free
Plasmodium berghei [2] = assay: Antimalarial activity against Plasmodium berghei ANKA infected in BALB/c mouse assessed as parasite growth inhibition at 50 mg/kg, po administered for 4 consecutive days measured for 7 to 13 days by geimsa dye based microscopy relative to control; type: functional; design: scale not given: the % may be the effect or the level left; settings: time 7-13 day
Plasmodium falciparum [3] = assay: Antimalarial activity against Plasmodium falciparum INDO assessed as parasite growth inhibition incubated for 48 hrs by SYBR green dye based fluorescence assay; type: functional, organism-based
Plasmodium falciparum [4] = assay: Antimalarial activity against Plasmodium falciparum Dd2 assessed as parasite growth inhibition incubated for 48 hrs by SYBR green dye based fluorescence assay; type: functional, organism-based; settings: Dd2, 48 h
Plasmodium falciparum [5] = assay: Antimalarial activity against Plasmodium falciparum 3D7 assessed as parasite growth inhibition incubated for 48 hrs by SYBR green dye based fluorescence assay; type: functional, organism-based; settings: 3D7, 48 h
Hemozoin [6] = assay: Inhibition of detergent-mediated beta-hematin formation incubated for 6 hrs by multiwell plate reader analysis
[7] = Selectivity index, ratio of CC50 for human Huh-7 cells to IC50 for Plasmodium falciparum 3D7; type: toxicity; settings: read-out: Ratio CC50/IC50
[8] = Selectivity index, ratio of IC50 for rat L6 cells to IC50 for erythrocytic Plasmodium falciparum NF54; type: toxicity; settings: read-out: Ratio IC50
Hemozoin [9] = assay: Inhibition of detergent-mediated beta-hematin formation incubated for 5 to 6 hrs by absorbance based assay
Plasmodium berghei [10] = assay: Antimalarial activity against Plasmodium berghei NK65 infected in Webster Swiss mouse assessed as parasite growth inhibition at 50 mg/kg/day, po for 5 days by geimsa dye based microscopy relative to control; type: functional; design: scale not given: the % may be the effect or the level left; settings: time 5 day
[11] = Selectivity index, ratio of IC50 for rat L6 cells to IC50 for erythrocytic Plasmodium falciparum K1; type: toxicity; settings: read-out: Ratio IC50
SK-HEP1 = assay: Antiproliferative activity against human SK-HEP1 cells assessed as cell growth inhibition; type: functional, cell-based
[12] = biological target: T1, Telomerase reverse transcriptase; assay: Inhibition of telomerase derived from human A2780 cell extract by TRAP assay; type: cell-free
[13] = Cytotoxicity against rat L6 cells assessed as cell growth inhibition; type: toxicity, cell-based
Plasmodium falciparum [14] = assay: Antimalarial activity against Plasmodium falciparum NF54 assessed as parasite growth inhibition; type: functional, organism-based
[15] = Selectivity index, ratio of IC50 for rat L6 cells to IC50 for Plasmodium falciparum NF54; type: toxicity; settings: read-out: Ratio IC50
Hemozoin [16] = assay: Inhibition of beta-hematin formation
HL-60 = assay: Antiproliferative activity against human HL-60 cells assessed as cell growth inhibition; type: functional
SR = assay: Antiproliferative activity against human SR cells assessed as cell growth inhibition; type: functional
MOLT-4 = assay: Antiproliferative activity against human MOLT-4 cells assessed as cell growth inhibition; type: functional
K562 = assay: Antiproliferative activity against human K562 cells assessed as cell growth inhibition; type: functional
RPMI-8226 = assay: Antiproliferative activity against human RPMI-8226 cells assessed as cell growth inhibition; type: functional
Plasmodium falciparum [17] = assay: Antimalarial activity against Plasmodium falciparum K1 assessed as parasite growth inhibition; type: functional, organism-based
Plasmodium falciparum [18] = assay: Antimalarial activity against chloroquine/pyrimethamine resistant Plasmodium falciparum K1 assessed as parasite growth inhibition by measuring [3H]-hypoxanthine incubated for 24 hrs; type: functional, organism-based
[19] = Cytotoxicity against rat L6 cells assessed as cell growth inhibition incubated for 70 hrs by alamar blue staining based microscopy; type: toxicity
Plasmodium falciparum [20] = assay: Antimalarial activity against erythrocytic Plasmodium falciparum NF54 assessed as parasite growth inhibition incubated for 48 hrs by [3H]-hypoxanthine incorporation assay; type: functional, organism-based
Plasmodium falciparum [21] = assay: Antimalarial activity against erythrocytic chloroquine/pyrimethamine resistant Plasmodium falciparum K1 assessed as parasite growth inhibition incubated for 48 hrs by [3H]-hypoxanthine incorporation assay; type: functional, organism-based
[22] = Resistance index, ratio of IC50 for erythrocytic Plasmodium falciparum K1 to IC50 for erythrocytic Plasmodium falciparum NF54
Plasmodium berghei [23] = assay: Antimalarial activity against erythrocytic Plasmodium berghei ANKA infected in NMRI mouse assessed as reduction in parasitemia at 40 mg/kg, ip administered for 4 consecutive days measured after 24 hrs post last dose by FACS analysis relative to control; type: functional; design: scale not given: the % may be the effect or the level left
A2780 [24] = assay: Cytotoxicity against drug resistant human A2780 cells assessed as cell growth inhibition; type: functional, cell-based
CH1 [25] = assay: Cytotoxicity against human CH1 cells assessed as cell growth inhibition; type: functional, cell-based
A2780 [26] = assay: Cytotoxicity against human A2780 cells assessed as cell growth inhibition; type: functional, cell-based
SK-OV-3 = assay: Cytotoxicity against human SK-OV-3 cells assessed as cell growth inhibition; type: functional, cell-based
Plasmodium falciparum [27] = assay: Antimalarial activity against multi-drug resistant Plasmodium falciparum K1 assessed as parasite growth inhibition by microdilution method; type: functional, organism-based
CH1 [28] = assay: Cytotoxicity against drug resistant human CH1 cells assessed as cell growth inhibition; type: functional, cell-based
[29] = Selectivity index, ratio of IC50 for human MRC5 to IC50 for Plasmodium falciparum Ghana; type: toxicity; settings: MRC5 cells, read-out: Ratio IC50
[30] = Selectivity index, ratio of IC50 for rat L6 cells to IC50 for Plasmodium falciparum K1; type: toxicity; settings: read-out: Ratio IC50
DNA = assay: Binding affinity to DNA (unknown origin) assessed as DNA intercalation by measuring amount of methyl green by spectrophotometry; type: nucleic-acid assay, Homo sapiens
Jurkat = assay: Antiproliferative activity against human Jurkat cells assessed as cell growth inhibition incubated for 4 days by sulphorhodamine assay; type: functional, cell-based; settings: 96 h
P388 = assay: Antiproliferative activity against mouse P388 cells assessed as cell growth inhibition by measuring [3H]TdR uptake incubated for 3 days; type: functional, cell-based
[31] = Antiproliferative activity against […] LLTC cells assessed as cell growth inhibition incubated for 4 days by sulphorhodamine assay; type: functional, cell-based; settings: LLTC cell line, 96 h
Trypanosoma brucei = assay: Antitrypanosomal activity against Trypanosoma brucei assessed as parasite growth inhibition; type: functional, organism-based

T1 sequence (O14746 whole entry): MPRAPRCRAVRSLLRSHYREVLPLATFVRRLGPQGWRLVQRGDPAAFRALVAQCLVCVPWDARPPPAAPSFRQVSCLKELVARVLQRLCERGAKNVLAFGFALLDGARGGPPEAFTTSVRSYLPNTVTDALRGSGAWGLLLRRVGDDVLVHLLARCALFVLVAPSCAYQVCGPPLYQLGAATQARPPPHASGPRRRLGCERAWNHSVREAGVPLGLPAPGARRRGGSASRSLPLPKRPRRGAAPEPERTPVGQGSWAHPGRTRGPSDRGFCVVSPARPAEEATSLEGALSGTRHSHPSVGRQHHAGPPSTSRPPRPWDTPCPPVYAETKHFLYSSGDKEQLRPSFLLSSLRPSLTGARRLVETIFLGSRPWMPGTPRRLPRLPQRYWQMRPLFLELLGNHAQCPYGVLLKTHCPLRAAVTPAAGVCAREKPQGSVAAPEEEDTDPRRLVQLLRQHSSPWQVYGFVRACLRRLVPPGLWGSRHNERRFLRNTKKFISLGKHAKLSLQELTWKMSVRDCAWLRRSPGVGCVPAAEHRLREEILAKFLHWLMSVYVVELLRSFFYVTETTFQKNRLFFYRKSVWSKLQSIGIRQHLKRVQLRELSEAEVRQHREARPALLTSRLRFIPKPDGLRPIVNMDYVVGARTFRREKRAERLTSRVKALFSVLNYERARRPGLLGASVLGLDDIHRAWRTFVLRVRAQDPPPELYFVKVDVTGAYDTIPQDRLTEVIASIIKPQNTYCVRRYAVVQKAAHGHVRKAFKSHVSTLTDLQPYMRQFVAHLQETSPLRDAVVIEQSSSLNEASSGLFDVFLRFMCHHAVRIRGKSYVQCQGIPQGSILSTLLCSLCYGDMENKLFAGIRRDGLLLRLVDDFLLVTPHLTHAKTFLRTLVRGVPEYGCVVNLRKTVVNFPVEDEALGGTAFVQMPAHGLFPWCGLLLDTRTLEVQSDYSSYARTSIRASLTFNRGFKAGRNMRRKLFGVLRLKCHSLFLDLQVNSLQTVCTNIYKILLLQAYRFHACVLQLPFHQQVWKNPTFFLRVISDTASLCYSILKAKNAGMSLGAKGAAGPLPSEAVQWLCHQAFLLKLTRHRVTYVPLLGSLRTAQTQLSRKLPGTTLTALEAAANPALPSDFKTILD

`O=C(NCCNc1c2ccccc2nc2c1[nH]c1ccccc12)c1ccccc1` gave an IC50 (HCT-116) of 0.8 µM.
For `OCCNc1c2ccccc2nc2c1[nH]c1ccccc12`, the IC50 [1] was 2350 nM.
Work on `O=C(NCCN1CCCCC1)c1c2cc(Br)ccc2nc2c1[nH]c1ccccc12` yielded an Activity (Plasmodium berghei [2]) of 27%, an IC50 (Plasmodium falciparum [3]) of 5 µM and an IC50 (Plasmodium falciparum [4]) of 6.3 µM. It also gave an IC50 (Plasmodium falciparum [5]) of 1300 nM, an IC50 (Hemozoin [6]) of 840 µM and a selectivity ratio [7] of 46.9.
With `C[C@H]1[C@H](OC(=O)CCC(=O)NCCCNc2c3ccccc3nc3c2[nH]c2ccccc23)O[C@@H]2O[C@@]3(C)CC[C@H]4[C@H](C)CC[C@@H]1[C@@]24OO3` the selectivity ratio [8] was 1720 and the IC50 (Hemozoin [9]) was 17.1 µM.
`C[n+]1c2ccccc2c(NC2CCNCC2)c2[nH]c3ccccc3c21` gave an Activity (Plasmodium berghei [10]) of 55%.
Work on `C[C@H]1[C@H](OC(=O)CCC(=O)NCCCNc2nc3ccccc3c3[nH]c4ccccc4c23)O[C@@H]2O[C@@]3(C)CC[C@H]4[C@H](C)CC[C@@H]1[C@@]24OO3` yielded an IC50 (Hemozoin [9]) of 15.7 µM and a selectivity ratio [11] of 3280.
With `c1ccc2c(c1)nc(NCCCNCCCNc1nc3ccccc3c3[nH]c4ccccc4c13)c1c3ccccc3[nH]c21` the IC50 (SK-HEP1) was 90 nM.
In the case of `CN(CCCNc1c2ccccc2nc2c1[nH]c1ccccc12)C(=O)c1cccc(B(O)O)c1`, the IC50 (HCT-116) is reported as 15.7 µM.
`c1cc2nc3c(cc2cc1CCCN1CCCCC1)[nH]c1ccc(CCCN2CCCCC2)cc13` gave an IC50 [12] of 11.8 µM.
Molecule `Cn1c2nc3ccccc3c-2c(NCC(C)(C)CNC(=S)Nc2ccccc2)c2ccccc21` has an IC50 [13] of 7.25 µM, an IC50 (Plasmodium falciparum [14]) of 57 nM and a selectivity ratio [15] of 126. It also gave an IC50 (Hemozoin [16]) of 19.9 µM.
Work on `COc1ccc(Nc2c3c4ccccc4nc-3n(C)c3ccccc23)cc1` yielded a GI50 (HL-60) of 0.11 µM, a GI50 (SR) of 0.19 µM and a GI50 (MOLT-4) of 90 nM. The GI50 (K562) was 0.42 µM and the GI50 (RPMI-8226) was 0.14 µM.
In the case of `c1cc2nc3c(cc2cc1CCCN1CCCC1)[nH]c1ccc(CCCN2CCCC2)cc13`, the IC50 [12] is reported as 6.3 µM.
For `c1ccc2c(NCCN3CCOCC3)c3[nH]c4ccccc4c3nc2c1`, the IC50 [1] was 550 nM.
Molecule `COC(=O)c1ccc2c(c1)c(NCCCN)c1c3ccccc3nc-1n2C` has an IC50 (Hemozoin [16]) of 104 µM.
For `COc1cc2c(cc1CN1CCN(C)CC1)[nH]c1c3ccc(Cl)cc3ncc21`, the IC50 (Plasmodium falciparum [17]) was 2.4 nM.
In the case of `COc1cc2c(cc1CN1CCC(N3CCCCC3)CC1)[nH]c1c3ccc(Cl)cc3ncc21`, the IC50 (Plasmodium falciparum [18]) is reported as 50 nM.
Molecule `C[C@H]1[C@H](OC(=O)CCC(=O)NCCCNc2c3ccccc3[n+](C)c3[nH]c4ccccc4c23)O[C@@H]2O[C@@]3(C)CC[C@H]4[C@H](C)CC[C@@H]1[C@@]24OO3` has a selectivity ratio [8] of 3400, an IC50 at 70 h [19] of 1530 nM and an IC50 (Plasmodium falciparum [20]) of 0.45 nM. The IC50 (Hemozoin [9]) was 222 µM, the selectivity ratio [11] was 3640 and the IC50 (Plasmodium falciparum [21]) was 0.42 nM. It also gave a Ratio IC50 [22] of 0.93 and an Activity (Plasmodium berghei [23]) of 89.6%.
With `c1ccc2nc3c(cc2c1)[nH]c1ccccc13` [QUINDOLINE] the IC50 (A2780 [24]) was 24.5 µM, the IC50 (CH1 [25]) was 15.5 µM and the IC50 (A2780 [26]) was 21.5 µM. The IC50 [1] was greater than 138000 nM, the IC50 (SK-OV-3) was 66 µM and the IC50 (Plasmodium falciparum [27]) was greater than 229 µM. For the same molecule, the IC50 (CH1 [28]) was 30 µM.
For `COc1c2c3ccccc3nc-2n(C)c2ccccc12`, the GI50 (HL-60) was 9.88 µM, the GI50 (SR) was 7.1 µM and the GI50 (MOLT-4) was 4700 nM. The GI50 (K562) was 11.5 µM and the GI50 (RPMI-8226) was 6.04 µM.
For `Cn1c2nc3ccccc3c-2cc2ccccc21` [NEOCRYPTOLEPINE], the selectivity ratio [29] was 0.4, the selectivity ratio [15] was 2 and the IC50 (Hemozoin [16]) was 5.97 µM. It also gave a selectivity ratio [30] of 1.9 and an IC50 (DNA) of 93 µM.
For `Cc1cccc2c1c1nc3c(C(=O)NCCN(C)C)cccc3cc1n2C`, the IC50 (Jurkat) was 55 nM, the IC50 (P388) was 20 nM and the IC50 [31] was 18 nM.
In the case of `Cn1c2nc3ccccc3c-2c(NCCCN2C(=O)c3ccccc3SC2c2ccc(Cl)cc2)c2ccccc21` (configuration not stated), the IC50 (Plasmodium falciparum [14]) is reported as 2.6 nM, the selectivity ratio [15] is reported as 361 and the IC50 (Trypanosoma brucei) is reported as 868 nM.
`CCN(CC)Cc1cc2[nH]c3c4ccc(Cl)cc4ncc3c2cc1OC` showed an IC50 (Plasmodium falciparum [17]) of 9 nM.
